Reference: patent US8138191B2, “Inhibitor compounds and cancer treatment methods” (Critical Outcome Technologies Inc., priority 2007, dated 2012)

Columns and labels:
HL-60 = test: Flow cytometric analysis of cell death (Annexin V/PI), HL-60; assay type: cell-based, human; details: HL-60, 200 nM
Description: All cell lines were grown and exposed to various concentrations of COTI-2 or vehicle only control and the percentage of dead or dying cells were determined 24 and 48 h post-exposure by Annexin V and propidium iodide.
HL-60 (human promyelocytic leukemia) cells were grown as non-adherent cells in flasks in RPMI 1640 medium supplemented with 10% FBS. H226 (human non-small cell lung cancer) cells were grown in Eagle's MEM supplemented with 10% FBS. Both cell lines were obtained from the American Type Culture Collection (ATCC)(Rockville, Md.) and maintained at 37° C. in a humidified 5% CO2 atmosphere.
Cells were plated in 25-cm^2 flasks and treated with COTI-2 (0-100 μM) added from a stock DMSO/DMEM solution such that DMSO concentrations never exceeded 0.5%. Control cells were treated with stock DMSO/DMEM. […] Resuspended cells (100 μl) were incubated in the dark with 10 μl propidium iodide (PI, 50 ng per ml; Sigma, St. Louis, Mo.) plus Annexin V-FITC (25 ng per ml, green fluorescence; BD Biosciences, Mississauga, Ontario). […] Samples were analyzed for combined Annexin V/PI staining (to assess dead plus apoptotic cells) using a Beckman Coulter EPCS XL-MCL flow cytometer (Beckman Coulter, Hileah, Fla.) and the data were analyzed with CellQuest software.

[1] = tested on: PI3K activity in DMS114 cells; test: PI3-K activity (PIP3 detection, Echelon kit), DMS114; assay type: cell-based, human; details: DMS114, 250 nM COTI-2 alone, 20 minutes
Description: (§1) As a negative control, an equivalent volume of DMSO was utilized. […] To measure PI3-K activity, a commercial kit was purchased from Echelon. Following the procedures recommended by the manufacturer, membrane lipids were extracted in several steps and the resulting PIP3 was immobilized to nitrocellulose and measured by its interaction with a PH-domain containing protein and HRP-conjugated antibody supplied with the kit. As an additional control in these experiments, the specific PI3-K inhibitor, LY294002 was used to inhibit PI3-K and thus stop PIP3 production.

MCF-7 cells = test: Sensitivity to COTI-2 after PTEN siRNA knockdown (alamar Blue), MCF-7; assay type: cell-based, human; details: MCF-7, 48 h post-transfection
Description: (§2) Briefly, HeLa and MCF-7 cells were transfected with 100 nM PTEN siRNA or control non-targeted siRNA at 48 or 144 h prior to exposure to various concentrations of COTI-2.
(§3) To assess the capacity of transient siRNA transfection to alter the ability of cells to proliferate in the presence or absence of COTI-2, HeLa or MCF-7 cells (both PTEN-positive) were plated in T25 flasks and transfected 24 h later with PTEN siRNA or non-targeting control siRNA (100 nM in both cases), using Oligofectamine Reagent (Invitrogen) according to the manufacturer's instructions and as previously described (J Pharmacol Exp Ther, 322:123-132). […] PTEN and 18S rRNA mRNA levels were determined by semi-quantitative reverse transcription PCR. […]
(§4) For determination of drug sensitivity, HeLa and MCF-7 cells (transfected with PTEN siRNA or control, non-targeted siRNA 48 or 144 hours prior) were re-plated in 96-well plates (VWR, Mississauga, ON, Canada) at 1700 (MCF-7) and 1200 (HeLa) cells per well in a volume of 100 μl of DMEM+10% FBS. […] Cells were then grown for 4 days, and viable cell numbers were assessed by the alamar Blue fluorescence assay using a Wallac Victor^2 multilabel counter (PerkinElmer Wallac, Gaithersburg, Md.). […]

HeLa cells = test: Sensitivity to COTI-2 after PTEN siRNA knockdown (alamar Blue), HeLa; assay type: cell-based, human; details: 48 h post-transfection
Description: as §2, §3, §4

[2] = Metabolic Stability (liver microsomes, rat, Sprague-Dawley); assay type: in vitro ADME; details: 1.0E−06 M, 60 min
Description: Metabolic stability was determined in human (mixed gender and pool of 50) monkey (male Cynomolgus, pool of 6 or more), dog male, beagle, pool of 4 or more) and rat (male Sprague-Dawley, pool of 100 or more) liver microsomes. […] Four reference substrates (1 μM) were tested simultaneously with COTI-2. […] Peak areas corresponding to COTI-2 were recorded by HPLC-MS/MS. Metabolic stability, expressed as percent of COTI-2 remaining, was calculated by comparing the peak area of COTI-2 at 60 min to time zero.

[3] = tested on: PI3K activity in SHP77 cells; test: PI3-K activity (PIP3 detection, Echelon kit), SHP77; assay type: cell-based, human; details: SHP77, 250 nM COTI-2 alone, 20 minutes
Description: as §1

SMILES: S=C(N/N=C1/CCCc2cccnc21)N1CCN(c2ccccn2)CC1 [COTI-2]
- induction of death (HL-60; 24 h): greater than 30%
- induction of death (HL-60; 48 h): greater than 70%
- increase in PI3K activity (PIP3 levels) [1]: approximately 25%
- resistance to COTI-2 after PTEN siRNA transfection (MCF-7 cells): significant increase in the resistance
- resistance to COTI-2 after PTEN siRNA transfection (HeLa cells): significant increase in the resistance
- Mean Parent Remaining [2]: 1%
- PI3K activity (PIP3 levels) [3]: did not inhibit PI3K activity
